Assay results: patent US10711000B2 (Fronthera U.S. Pharmaceuticals LLC, priority 2018, dated 2020)
Read-outs that look alike come from different tables or passages of the source.

Biological target: T1, Autotaxin (Homo sapiens, UniProt Q13822)
T1 construct: from tissue; host or cells: pooled human plasma
Assay: LPA formation in pooled human plasma (ex vivo autotaxin inhibition)
Format: biochemical
Conditions: 2 hours incubation
Description: Autotaxin is a plasma phosphodiesterase that converts lysophosphatidylcholine (LPC) into lysophosphatidic acid (LPA), therefore LPA formation was used to evaluate the potency of autotaxin inhibitors. The potency of compound was evaluated ex vivo in pooled human plasma.
Various concentrations of compound were incubated with plasma for 2 hours, and the LPA 18:2 and 20:4 concentration was measured by LC/MS/MS. To determine the LPA18:2 or 20:4 concentration in study plasma, a 10× calibration standard of LPA 18:2 or 20:4 were prepared by serial dilution in butyl alcohol: 20000, 10000, 5000, 2000, 1000, 500, 200, 100, 50, 20, and 10 ng/mL. 3 μL of calibration standard solution was added into 27.0 μL of blank plasma in 1.5-mL microcentrifuge tubes to generate 1× calibration standards. The 30.0 μL of standards or study plasma was added into 1.5-mL microcentrifuge tubes. 200 μL of butyl alcohol (containing 25.0 ng/mL LPA17:0 for internal control) was added into each 1.5-mL microcentrifuge tube containing study plasma or calibration standards. After vortexing for 1 minute and centrifuging at 10000 rpm for 10 min, 180 μL of supernatant was transferred into a 96-well plate and the LPA18:2 concentration in the plasma was quantitated using LC/MS/MS together with standards. Briefly, 8 μL of the solutions were injected for LC-MS/MS analysis using an ACQUITY UPLC BEH C18 column (2.1×50 mm, 1.7 μm) with mobile phase A [20 mM NH4OAC in water (0.1% FA)] and phase B [5 mM NH4OAC in water/0.2% FA in ACN=5:95]. Mass spectrometer parameters optimization for LPA18:2 were performed by Deprotonated molecular ion at m/z 433.2 ([M−H]^−) for LPA18:2, 457.2 for LPA20:4 and abundant product ion at m/z 152.8 for both LPA18:2 and LPA20:4 were obtained. Quantitative data were acquired in multiple reaction monitoring (MRM) negative electrospray ionization mode
The inhibition rate of LPA formation was determined by comparing the levels of LPA in treated and non-treated plasma. The data was plotted against the corresponding concentration of compound and the IC50 was calculated through non-linear regression fitting.

[1] = LPA 18:2 by LC/MS/MS, read-out: LPA formation (18:2) (IC50)
[2] = LPA 20:4 by LC/MS/MS, read-out: LPA formation (20:4) (IC50)

CCc1nn2c(C)cc(N3CC4(CN(C(=O)[C@H](O)CO)C4)C3)cc2c1N(C)c1nc(-c2ccc(F)cc2)c(C#N)s1 (single isomer, unassigned) [Example 75]
IC50 [1]: 100 to 500 nM | IC50 [2]: 100 to 500 nM

CCc1nn2c(C)cc(N3CC4(CN(C(=O)[C@@H](O)CO)C4)C3)cc2c1N(C)c1nc(-c2ccc(F)cc2)c(C#N)s1 (single isomer, unassigned) [Example 76]
IC50 [1]: ≤ 100 nM | IC50 [2]: 100 to 500 nM

CCc1nn2c(C)cc(N3CC4(CN(C(=O)[C@H]5COC[C@@H]5O)C4)C3)cc2c1N(C)c1nc(-c2ccc(F)cc2)c(C#N)s1 (stereo in doubt) [Example 59, 2-((2-ethyl-5-(6-(4-hydroxytetrahydrofuran-3-carbonyl)-2,6-diazaspiro[3.3]heptan-2-yl)-7-methylpyrazolo[1,5-a]pyridin-3-yl)(methyl)amino)-4-(4-fluorophenyl)thiazole-5-carbonitrile]
IC50 [1]: 100 to 500 nM | IC50 [2]: 100 to 500 nM

CCc1nn2c(C)cc(N3CC4(CN(C(=O)[C@@H]5COC[C@H]5O)C4)C3)cc2c1N(C)c1nc(-c2ccc(F)cc2)c(C#N)s1 (stereo in doubt) [Example 74, 2-((2-ethyl-5-(6-(4-hydroxytetrahydrofuran-3-carbonyl)-2,6-diazaspiro[3.3]heptan-2-yl)-7-methylpyrazolo[1,5-a]pyridin-3-yl)(methyl)amino)-4-(4-fluorophenyl)thiazole-5-carbonitrile]
IC50 [1]: 100 to 500 nM | IC50 [2]: 100 to 500 nM

CCn1nc2ncc(N3CCN(CC(=O)N4CC(O)C4)CC3)cc2c1N(C)c1nc(-c2ccc(F)cc2)c(C#N)s1 [Compound 115, 2-((2-ethyl-5-(4-(2-(3-hydroxyazetidin-1-yl)-2-oxoethyl)piperazin-1-yl)-2H-pyrazolo[3,4-b]pyridin-3-yl)(methyl)amino)-4-(4-fluorophenyl)thiazole-5-carbonitrile]
IC50 [1]: ≤ 100 nM | IC50 [2]: ≤ 100 nM

CCn1nc2ncc(N3CC4(CN(C(=O)C5(O)CCOCC5)C4)C3)cc2c1N(C)c1nc(-c2ccc(F)cc2)c(C#N)s1 [Compound 116, 2-((2-ethyl-5-(6-(4-hydroxytetrahydro-2H-pyran-4-carbonyl)-2,6-diazaspiro[3.3]heptan-2-yl)-2H-pyrazolo[3,4-b]pyridin-3-yl)(methyl)amino)-4-(4-fluorophenyl)thiazole-5-carbonitrile]
IC50 [1]: ≤ 100 nM | IC50 [2]: ≤ 100 nM

CCn1nc2nc(C)c(N3CC4(CN(C(=O)C(C)(C)O)C4)C3)cc2c1N(C)c1nc(-c2ccc(F)cc2)c(C#N)s1 [Compound 120, 2-((2-ethyl-5-(6-(2-hydroxy-2-methylpropanoyl)-2,6-diazaspiro[3.3]heptan-2-yl)-6-methyl-2H-pyrazolo[3,4-b]pyridin-3-yl)(methyl)amino)-4-(4-fluorophenyl)thiazole-5-carbonitrile]
IC50 [1]: ≤ 100 nM | IC50 [2]: ≤ 100 nM

CCn1nc2nc(C)c(N3CC4(CN(C(=O)[C@H]5CCOC5)C4)C3)cc2c1N(C)c1nc(-c2ccc(F)cc2)c(C#N)s1 [Compound 121, (S)-2-((2-ethyl-6-methyl-5-(6-(tetrahydrofuran-3-carbonyl)-2,6-diazaspiro[3.3]heptan-2-yl)-2H-pyrazolo[3,4-b]pyridin-3-yl)(methyl)amino)-4-(4-fluorophenyl)thiazole-5-carbonitrile]
IC50 [1]: ≤ 100 nM | IC50 [2]: ≤ 100 nM

CCn1nc2c(C)cc(N3CCN(CC(=O)N4CC(O)C4)CC3)cc2c1N(C)c1nc(-c2ccc(F)cc2)c(C#N)s1 [Compound 125, 2-((2-ethyl-5-(4-(2-(3-hydroxyazetidin-1-yl)-2-oxoethyl)piperazin-1-yl)-7-methyl-2H-indazol-3-yl)(methyl)amino)-4-(4-fluorophenyl)thiazole-5-carbonitrile]
IC50 [1]: 500 to 1000 nM | IC50 [2]: 500 to 1000 nM

CCc1nn2ccc(N3CCN(CC(=O)N4CC(O)C4)CC3)cc2c1N(C)c1nc(-c2ccc(F)cc2)c(C#N)s1 [Example 1, 2-((2-ethyl-5-(4-(2-(3-hydroxyazetidin-1-yl)-2-oxoethyl)piperazin-1-yl)pyrazolo[1,5-a]pyridin-3-yl)(methyl)amino)-4-(4-fluorophenyl)thiazole-5-carbonitrile]
IC50 [1]: ≤ 100 nM | IC50 [2]: ≤ 100 nM

CCc1nn2ccc(N3CCN(CC(=O)N4CC[C@H](O)C4)CC3)cc2c1N(C)c1nc(-c2ccc(F)cc2)c(C#N)s1 [Example 2, (S)-2-((2-ethyl-5-(4-(2-(3-hydroxypyrrolidin-1-yl)-2-oxoethyl)piperazin-1-yl)pyrazolo[1,5-a]pyridin-3-yl)(methyl)amino)-4-(4-fluorophenyl)thiazole-5-carbonitrile]
IC50 [1]: ≤ 100 nM | IC50 [2]: ≤ 100 nM

CCc1nn2ccc(N3CCN(CC(=O)N4CC[C@@H](O)C4)CC3)cc2c1N(C)c1nc(-c2ccc(F)cc2)c(C#N)s1 [Example 3, (R)-2-((2-ethyl-5-(4-(2-(3-hydroxypyrrolidin-1-yl)-2-oxoethyl)piperazin-1-yl)pyrazolo[1,5-a]pyridin-3-yl)(methyl)amino)-4-(4-fluorophenyl)thiazole-5-carbonitrile]
IC50 [1]: ≤ 100 nM | IC50 [2]: ≤ 100 nM

CCc1nn2ccc(N3CCN(CC(=O)N4CC(CO)C4)CC3)cc2c1N(C)c1nc(-c2ccc(F)cc2)c(C#N)s1 [Example 4, 2-((2-ethyl-5-(4-(2-(3-(hydroxymethyl)azetidin-1-yl)-2-oxoethyl)piperazin-1-yl)pyrazolo[1,5-a]pyridin-3-yl)(methyl)amino)-4-(4-fluorophenyl)thiazole-5-carbonitrile]
IC50 [1]: ≤ 100 nM | IC50 [2]: ≤ 100 nM

CCc1nn2ccc(N3CCN(CC(=O)N(C)C)CC3)cc2c1N(C)c1nc(-c2ccc(F)cc2)c(C#N)s1 [Example 5, 2-(4-(3-((5-cyano-4-(4-fluorophenyl)thiazol-2-yl)(methyl)amino)-2-ethylpyrazolo[1,5-a]pyridin-5-yl)piperazin-1-yl)-N,N-dimethylacetamide]
IC50 [1]: ≤ 100 nM | IC50 [2]: ≤ 100 nM

CCc1nn2ccc(N3CCC4(CC3)CC(C(=O)N3CC(O)C3)C4)cc2c1N(C)c1nc(-c2ccc(F)cc2)c(C#N)s1 [Example 6, 2-[[2-ethyl-5-[2-(3-hydroxyazetidine-1-carbonyl)-7-azaspiro[3.5]nonan-7-yl]pyrazolo[1,5-a]pyridin-3-yl]-methyl-amino]-4-(4-fluorophenyl)thiazole-5-carbonitrile]
IC50 [1]: ≤ 100 nM | IC50 [2]: ≤ 100 nM

CCc1nn2ccc(N3CC4(CC4C(=O)N4CC(O)C4)C3)cc2c1N(C)c1nc(-c2ccc(F)cc2)c(C#N)s1 (stereo not shown) [Example 7, 2-((2-ethyl-5-(1-(3-hydroxyazetidine-1-carbonyl)-5-azaspiro[2.3]hexan-5-yl)pyrazolo[1,5-a]pyridin-3-yl)(methyl)amino)-4-(4-fluorophenyl)thiazole-5-carbonitrile]
IC50 [1]: 100 to 500 nM | IC50 [2]: 100 to 500 nM

CCc1nn2ccc(N3CC4(CC(C(=O)N5CC(O)C5)C4)C3)cc2c1N(C)c1nc(-c2ccc(F)cc2)c(C#N)s1 [Example 8, 2-[[2-ethyl-5-[6-(3-hydroxyazetidine-1-carbonyl)-2-azaspiro[3.3]heptan-2-yl]pyrazolo[1,5-a]pyridin-3-yl]-methyl-amino]-4-(4-fluorophenyl)thiazole-5-carbonitrile]
IC50 [1]: 100 to 500 nM | IC50 [2]: 100 to 500 nM

CCc1nn2ccc(N3CC4(CN(C(=O)[C@@H]5CCOC5)C4)C3)cc2c1N(C)c1nc(-c2ccc(F)cc2)c(C#N)s1 [Example 9, (R)-2-((2-ethyl-5-(6-(tetrahydrofuran-3-carbonyl)-2,6-diazaspiro[3.3]heptan-2-yl)pyrazolo[1,5-a]pyridin-3-yl)(methyl)amino)-4-(4-fluorophenyl)thiazole-5-carbonitrile]
IC50 [1]: 100 to 500 nM | IC50 [2]: 100 to 500 nM

CCc1nn2ccc(N3CC4(CN(C(=O)[C@H]5CCOC5)C4)C3)cc2c1N(C)c1nc(-c2ccc(F)cc2)c(C#N)s1 [Example 10, (S)-2-((2-ethyl-5-(6-(tetrahydrofuran-3-carbonyl)-2,6-diazaspiro[3.3]heptan-2-yl)pyrazolo[1,5-a]pyridin-3-yl)(methyl)amino)-4-(4-fluorophenyl)thiazole-5-carbonitrile]
IC50 [1]: ≤ 100 nM | IC50 [2]: ≤ 100 nM

CCc1nn2ccc(N3CC4(CN(C(=O)N5CC(O)C5)C4)C3)cc2c1N(C)c1nc(-c2ccc(F)cc2)c(C#N)s1 [Example 11, 2-((2-ethyl-5-(6-(3-hydroxyazetidine-1-carbonyl)-2,6-diazaspiro[3.3]heptan-2-yl)pyrazolo[1,5-a]pyridin-3-yl)(methyl)amino)-4-(4-fluorophenyl)thiazole-5-carbonitrile]
IC50 [1]: ≤ 100 nM | IC50 [2]: ≤ 100 nM
